Assay [1] is described as follows: cells. Type of assay: functional, cell-based.
The nature of assay [2]: cells. Type of assay: functional, cell-based. The source holds these as a separate data set.
In assay [3] the target is Voltage-dependent T-type calcium channel subunit alpha-1H (Homo sapiens, UniProt O95180). Type of assay: functional.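 Also: channel activity triggered by adding a high calcium stimulation buffer.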
Assay [4] can be described thus: viability of HCT116 lacking mutant beta-catenin – cell-based, human colon tumor, dose response (AID 1045).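 Also: HCT116 colon tumor cells with beta catenin knocked out; cells exposed to compound for 60 hours.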 Type of assay: functional.
The target in assay [5] is T1, Rac GTPase-activating protein 1 (Homo sapiens, UniProt Q9H0H5).
T1 sequence (Q9H0H5 whole entry): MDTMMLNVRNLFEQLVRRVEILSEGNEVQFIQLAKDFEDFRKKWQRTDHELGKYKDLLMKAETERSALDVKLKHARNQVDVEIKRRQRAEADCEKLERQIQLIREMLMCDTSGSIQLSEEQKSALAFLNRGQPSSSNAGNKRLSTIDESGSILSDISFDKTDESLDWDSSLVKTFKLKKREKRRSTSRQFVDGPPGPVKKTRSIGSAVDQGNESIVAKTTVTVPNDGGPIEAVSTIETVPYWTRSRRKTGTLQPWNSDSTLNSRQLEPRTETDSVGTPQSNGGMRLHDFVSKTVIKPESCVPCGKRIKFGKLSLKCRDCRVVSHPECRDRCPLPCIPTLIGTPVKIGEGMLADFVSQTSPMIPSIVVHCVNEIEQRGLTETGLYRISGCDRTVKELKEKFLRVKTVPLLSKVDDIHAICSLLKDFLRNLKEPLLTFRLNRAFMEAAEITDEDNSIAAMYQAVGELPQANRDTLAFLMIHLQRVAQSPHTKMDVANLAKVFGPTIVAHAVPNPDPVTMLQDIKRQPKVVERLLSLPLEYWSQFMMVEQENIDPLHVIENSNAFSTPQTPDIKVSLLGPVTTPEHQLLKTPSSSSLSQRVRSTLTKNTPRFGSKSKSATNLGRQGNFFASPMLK
The assay is described as follows: blockers of MgcRacGAP-driven Rac1 GTP hydrolysis – biochemical, ADP Hunter fluorescence, primary and confirmatory, confirmation (AID 624330). The format is functional.

Assay [6] in a line: viability of PTEN-deleted HCT116 cells – cell-based, HCT116 PTEN knockout, dose response (AID 1047).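 Also: HCT116 colon tumor cells with PTEN knocked out; cells exposed to compound for 60 hours before readout; potency for loss of cell viability measured by luminescence.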 Type of assay: functional.
Assay [7] addresses T2, Fatty acid synthase (Homo sapiens, UniProt P49327). Description: inhibition of human FAS-TE enzyme activity – biochemical, kinetic fluorescence intensity, dose response (AID 624326).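 Also: rate of fluorescence rise from hydrolysis of a fluorogenic O-methyl fluorescein ester substrate.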 The format is functional.
Assay [8] has as its target T2, Fatty acid synthase. Description: inhibition of human FAS-TE enzyme activity – biochemical, endpoint fluorescence intensity, uHTS hits, dose response (AID 624327).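 Also: fluorescence from hydrolysis of an O-methyl fluorescein acyl ester substrate by the enzyme.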 Type of assay: functional.
Assay [9] deals with T3, High affinity choline transporter 1 (Homo sapiens, UniProt Q9GZV3).
T3 sequence (Q9GZV3 whole entry): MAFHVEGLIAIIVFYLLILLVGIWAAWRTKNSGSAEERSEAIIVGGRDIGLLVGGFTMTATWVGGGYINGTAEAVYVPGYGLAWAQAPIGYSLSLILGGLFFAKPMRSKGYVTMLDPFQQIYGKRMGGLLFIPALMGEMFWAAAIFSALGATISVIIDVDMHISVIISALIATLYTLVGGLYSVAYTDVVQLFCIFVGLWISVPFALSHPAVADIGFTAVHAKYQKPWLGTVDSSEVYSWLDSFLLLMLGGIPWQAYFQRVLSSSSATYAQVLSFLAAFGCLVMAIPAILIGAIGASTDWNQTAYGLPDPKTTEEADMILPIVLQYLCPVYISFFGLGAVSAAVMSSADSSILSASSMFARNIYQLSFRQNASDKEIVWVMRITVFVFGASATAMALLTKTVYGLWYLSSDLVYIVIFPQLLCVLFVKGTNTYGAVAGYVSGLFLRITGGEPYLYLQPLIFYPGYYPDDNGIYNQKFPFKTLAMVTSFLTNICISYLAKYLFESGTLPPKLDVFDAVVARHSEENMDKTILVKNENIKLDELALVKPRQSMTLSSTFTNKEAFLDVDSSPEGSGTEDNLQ
Description: human choline transporter blockers, potency – cell-based, 5-point CRC, membrane potential dye, dose response (AID 504840). The format is functional.

The target of assay [10] is T4, Heat shock factor protein 1 (Mus musculus, UniProt P38532).
T4 sequence (P38532 whole entry): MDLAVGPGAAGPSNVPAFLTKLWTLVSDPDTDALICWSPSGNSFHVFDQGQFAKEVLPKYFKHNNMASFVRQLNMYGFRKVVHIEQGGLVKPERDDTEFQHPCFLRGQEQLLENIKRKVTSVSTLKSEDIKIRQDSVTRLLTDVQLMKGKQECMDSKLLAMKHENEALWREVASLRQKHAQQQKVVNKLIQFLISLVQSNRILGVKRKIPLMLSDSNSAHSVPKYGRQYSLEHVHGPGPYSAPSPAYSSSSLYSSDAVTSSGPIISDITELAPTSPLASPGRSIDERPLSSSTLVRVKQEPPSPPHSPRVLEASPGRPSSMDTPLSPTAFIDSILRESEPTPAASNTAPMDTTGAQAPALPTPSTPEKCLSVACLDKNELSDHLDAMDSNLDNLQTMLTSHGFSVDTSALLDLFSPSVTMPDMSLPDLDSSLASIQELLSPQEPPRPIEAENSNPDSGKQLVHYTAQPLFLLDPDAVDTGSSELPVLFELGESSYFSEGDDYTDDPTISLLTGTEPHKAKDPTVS
Description: decrease of HSF1-responsive luciferase luminescence – cell-based, NIH3T3, dose retest, confirmation (AID 2382).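 Also: NIH3T3 fibroblasts with HSF1-driven luciferase reporter stressed by proteasome inhibitor MG132; luminescence from HSF1-driven luciferase expression after 8 hours of MG132 stress.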 Type of assay: functional.

A short description of assay [11]: HIV-1 AD8 envelope cell-cell fusion blockers – cherry-pick, dose response (AID 652062).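 Also: luciferase signal from cell-cell fusion driven by HIV-1 clade B AD8 Env; potency is for inhibitors of fusion seen as a drop in luminescence.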 Type of assay: functional, cell-based.
The nature of assay [12]: blockers of HIV-1 envelope-mediated cell-cell fusion – cherry-pick, dose response (AID 652057). The format is functional, cell-based.
Assay [13] in a line: blockers of HIV-1 ZM109 envelope-driven cell-cell fusion – HeLa effector, CEM target cells, luciferase, cherry-pick, dose response (AID 652058).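 Also: luciferase signal from HIV-1 Env mediated cell-cell fusion of effector and target cells.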 The format is functional, cell-based.
Assay [14] is described as follows: Luminescence Cell-Based Dose Retest to Confirm Inhibitors of Cancer Stem Cells. [Related pubchem assays (depositor defined):AID2717, AID2721]. Type of assay: functional. The following applies: Homo sapiens.
Assay [15] has as its target T5, Ubiquitin-conjugating enzyme E2 N (Homo sapiens, UniProt P61088).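 Also: Dose-response confirmation in a TR-FRET assay detecting UBC13-driven polyubiquitin chain formation, inhibition measured.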
T5 sequence (P61088 whole entry): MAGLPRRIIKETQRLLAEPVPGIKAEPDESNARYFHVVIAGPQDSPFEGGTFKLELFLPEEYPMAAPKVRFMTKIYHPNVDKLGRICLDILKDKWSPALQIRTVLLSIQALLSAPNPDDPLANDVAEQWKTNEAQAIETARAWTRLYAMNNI
The format is functional.

Assay [16] has as its target T6, Calpain-2 catalytic subunit (Sus scrofa, UniProt P43367).
T6 sequence (P43367 whole entry): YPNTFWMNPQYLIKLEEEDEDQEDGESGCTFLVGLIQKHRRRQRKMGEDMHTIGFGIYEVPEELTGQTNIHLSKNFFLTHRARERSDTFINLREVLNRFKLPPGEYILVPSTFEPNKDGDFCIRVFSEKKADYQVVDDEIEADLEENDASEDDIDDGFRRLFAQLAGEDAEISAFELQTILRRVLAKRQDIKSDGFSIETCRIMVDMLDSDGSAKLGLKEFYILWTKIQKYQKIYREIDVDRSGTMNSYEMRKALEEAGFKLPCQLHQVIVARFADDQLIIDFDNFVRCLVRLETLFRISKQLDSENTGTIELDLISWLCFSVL
The assay is described as follows: m-calpain protease blockers, concentration series – biochemical, fluorogenic peptide substrate, dose response (AID 1420). The format is functional.

The target in assay [17] is T7, Type-1 angiotensin II receptor (Homo sapiens, UniProt P30556).
T7 sequence (P30556 whole entry): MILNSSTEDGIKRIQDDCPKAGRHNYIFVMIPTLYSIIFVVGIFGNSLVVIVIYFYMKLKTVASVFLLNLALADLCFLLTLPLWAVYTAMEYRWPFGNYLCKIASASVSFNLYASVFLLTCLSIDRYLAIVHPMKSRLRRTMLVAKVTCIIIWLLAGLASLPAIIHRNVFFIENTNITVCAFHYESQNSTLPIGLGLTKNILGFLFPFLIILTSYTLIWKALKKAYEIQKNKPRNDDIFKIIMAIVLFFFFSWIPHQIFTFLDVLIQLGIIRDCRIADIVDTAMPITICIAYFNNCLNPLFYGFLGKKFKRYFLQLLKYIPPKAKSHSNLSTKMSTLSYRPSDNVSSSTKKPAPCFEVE
The assay is described as follows: antagonism of angiotensin II type 1 receptor – cell-based, uHTS hits, selectivity assay for APJ receptor antagonist project, dose response (AID 463214).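 Also: antagonist potency against angiotensin II stimulated AT1 response.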 Type of assay: functional.

Assay [18] addresses Beta-galactosidase (Escherichia coli, UniProt Q8VNN2). Description: PubChem AID 485352. The format is functional.

Activity calls are given as the source filed them.

These results are taken from ChEMBL document CHEMBL1201862, “PubChem BioAssay data set” (2004).

Chain of Voltage-dependent T-type calcium channel subunit alpha-1H (O95180 whole entry): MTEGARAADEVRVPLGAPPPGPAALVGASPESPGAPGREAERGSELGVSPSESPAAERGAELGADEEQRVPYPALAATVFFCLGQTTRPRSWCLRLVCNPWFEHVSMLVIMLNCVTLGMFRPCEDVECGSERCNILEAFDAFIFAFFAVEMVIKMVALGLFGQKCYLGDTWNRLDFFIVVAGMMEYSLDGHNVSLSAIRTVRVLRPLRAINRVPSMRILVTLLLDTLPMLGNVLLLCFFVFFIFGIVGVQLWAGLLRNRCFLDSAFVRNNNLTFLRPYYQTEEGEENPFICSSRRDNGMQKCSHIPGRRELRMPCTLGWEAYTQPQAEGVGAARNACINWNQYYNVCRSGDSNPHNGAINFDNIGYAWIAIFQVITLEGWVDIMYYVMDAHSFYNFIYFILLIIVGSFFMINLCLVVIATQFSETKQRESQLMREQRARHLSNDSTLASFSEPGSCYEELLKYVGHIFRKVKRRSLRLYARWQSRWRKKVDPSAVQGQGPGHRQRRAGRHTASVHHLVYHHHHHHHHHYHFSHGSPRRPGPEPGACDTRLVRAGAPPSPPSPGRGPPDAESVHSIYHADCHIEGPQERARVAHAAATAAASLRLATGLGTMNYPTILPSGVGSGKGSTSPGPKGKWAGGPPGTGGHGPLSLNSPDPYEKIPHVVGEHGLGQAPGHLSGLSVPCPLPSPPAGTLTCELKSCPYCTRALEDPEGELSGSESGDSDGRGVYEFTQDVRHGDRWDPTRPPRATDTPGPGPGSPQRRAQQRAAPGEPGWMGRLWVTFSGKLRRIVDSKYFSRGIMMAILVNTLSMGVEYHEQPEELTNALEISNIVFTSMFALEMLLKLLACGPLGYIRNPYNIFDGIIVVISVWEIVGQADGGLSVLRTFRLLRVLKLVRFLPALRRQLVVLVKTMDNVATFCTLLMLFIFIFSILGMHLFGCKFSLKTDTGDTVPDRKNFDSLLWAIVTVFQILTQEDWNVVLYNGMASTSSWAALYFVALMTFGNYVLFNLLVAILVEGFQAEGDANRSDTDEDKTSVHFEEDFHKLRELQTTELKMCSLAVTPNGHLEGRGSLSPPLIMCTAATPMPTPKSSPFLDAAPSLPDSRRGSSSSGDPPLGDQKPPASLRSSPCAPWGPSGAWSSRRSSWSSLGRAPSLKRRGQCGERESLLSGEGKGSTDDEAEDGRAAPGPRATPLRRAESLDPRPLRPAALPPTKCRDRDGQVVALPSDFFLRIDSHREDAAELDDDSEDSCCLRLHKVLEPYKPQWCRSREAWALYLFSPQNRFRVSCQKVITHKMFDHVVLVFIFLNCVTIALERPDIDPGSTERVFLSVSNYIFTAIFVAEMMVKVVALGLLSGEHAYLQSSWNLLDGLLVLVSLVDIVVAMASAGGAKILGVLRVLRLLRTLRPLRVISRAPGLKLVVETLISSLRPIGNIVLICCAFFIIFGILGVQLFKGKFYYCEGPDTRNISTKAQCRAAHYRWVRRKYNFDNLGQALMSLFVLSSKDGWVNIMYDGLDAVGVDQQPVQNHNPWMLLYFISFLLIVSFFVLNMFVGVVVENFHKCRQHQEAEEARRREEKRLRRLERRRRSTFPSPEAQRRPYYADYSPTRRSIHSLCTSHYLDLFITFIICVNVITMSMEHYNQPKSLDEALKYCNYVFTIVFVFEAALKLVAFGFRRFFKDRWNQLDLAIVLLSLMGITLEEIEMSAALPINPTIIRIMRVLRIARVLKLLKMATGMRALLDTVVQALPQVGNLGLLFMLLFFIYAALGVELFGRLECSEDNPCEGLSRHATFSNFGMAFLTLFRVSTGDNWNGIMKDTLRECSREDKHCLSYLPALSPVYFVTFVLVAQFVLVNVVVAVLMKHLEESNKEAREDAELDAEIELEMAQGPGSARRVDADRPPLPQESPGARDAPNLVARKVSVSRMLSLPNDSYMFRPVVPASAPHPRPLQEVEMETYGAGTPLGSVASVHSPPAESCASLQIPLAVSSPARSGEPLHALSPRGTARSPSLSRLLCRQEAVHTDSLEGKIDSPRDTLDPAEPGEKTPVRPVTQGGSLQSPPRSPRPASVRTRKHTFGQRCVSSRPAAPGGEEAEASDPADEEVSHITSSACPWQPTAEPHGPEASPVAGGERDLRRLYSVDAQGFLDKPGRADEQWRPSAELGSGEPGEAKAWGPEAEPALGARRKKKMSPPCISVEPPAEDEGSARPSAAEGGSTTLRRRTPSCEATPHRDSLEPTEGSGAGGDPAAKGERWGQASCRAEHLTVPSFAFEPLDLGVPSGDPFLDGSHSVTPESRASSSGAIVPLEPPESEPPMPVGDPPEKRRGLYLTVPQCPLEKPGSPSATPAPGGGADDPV
T2 sequence (P49327 whole entry): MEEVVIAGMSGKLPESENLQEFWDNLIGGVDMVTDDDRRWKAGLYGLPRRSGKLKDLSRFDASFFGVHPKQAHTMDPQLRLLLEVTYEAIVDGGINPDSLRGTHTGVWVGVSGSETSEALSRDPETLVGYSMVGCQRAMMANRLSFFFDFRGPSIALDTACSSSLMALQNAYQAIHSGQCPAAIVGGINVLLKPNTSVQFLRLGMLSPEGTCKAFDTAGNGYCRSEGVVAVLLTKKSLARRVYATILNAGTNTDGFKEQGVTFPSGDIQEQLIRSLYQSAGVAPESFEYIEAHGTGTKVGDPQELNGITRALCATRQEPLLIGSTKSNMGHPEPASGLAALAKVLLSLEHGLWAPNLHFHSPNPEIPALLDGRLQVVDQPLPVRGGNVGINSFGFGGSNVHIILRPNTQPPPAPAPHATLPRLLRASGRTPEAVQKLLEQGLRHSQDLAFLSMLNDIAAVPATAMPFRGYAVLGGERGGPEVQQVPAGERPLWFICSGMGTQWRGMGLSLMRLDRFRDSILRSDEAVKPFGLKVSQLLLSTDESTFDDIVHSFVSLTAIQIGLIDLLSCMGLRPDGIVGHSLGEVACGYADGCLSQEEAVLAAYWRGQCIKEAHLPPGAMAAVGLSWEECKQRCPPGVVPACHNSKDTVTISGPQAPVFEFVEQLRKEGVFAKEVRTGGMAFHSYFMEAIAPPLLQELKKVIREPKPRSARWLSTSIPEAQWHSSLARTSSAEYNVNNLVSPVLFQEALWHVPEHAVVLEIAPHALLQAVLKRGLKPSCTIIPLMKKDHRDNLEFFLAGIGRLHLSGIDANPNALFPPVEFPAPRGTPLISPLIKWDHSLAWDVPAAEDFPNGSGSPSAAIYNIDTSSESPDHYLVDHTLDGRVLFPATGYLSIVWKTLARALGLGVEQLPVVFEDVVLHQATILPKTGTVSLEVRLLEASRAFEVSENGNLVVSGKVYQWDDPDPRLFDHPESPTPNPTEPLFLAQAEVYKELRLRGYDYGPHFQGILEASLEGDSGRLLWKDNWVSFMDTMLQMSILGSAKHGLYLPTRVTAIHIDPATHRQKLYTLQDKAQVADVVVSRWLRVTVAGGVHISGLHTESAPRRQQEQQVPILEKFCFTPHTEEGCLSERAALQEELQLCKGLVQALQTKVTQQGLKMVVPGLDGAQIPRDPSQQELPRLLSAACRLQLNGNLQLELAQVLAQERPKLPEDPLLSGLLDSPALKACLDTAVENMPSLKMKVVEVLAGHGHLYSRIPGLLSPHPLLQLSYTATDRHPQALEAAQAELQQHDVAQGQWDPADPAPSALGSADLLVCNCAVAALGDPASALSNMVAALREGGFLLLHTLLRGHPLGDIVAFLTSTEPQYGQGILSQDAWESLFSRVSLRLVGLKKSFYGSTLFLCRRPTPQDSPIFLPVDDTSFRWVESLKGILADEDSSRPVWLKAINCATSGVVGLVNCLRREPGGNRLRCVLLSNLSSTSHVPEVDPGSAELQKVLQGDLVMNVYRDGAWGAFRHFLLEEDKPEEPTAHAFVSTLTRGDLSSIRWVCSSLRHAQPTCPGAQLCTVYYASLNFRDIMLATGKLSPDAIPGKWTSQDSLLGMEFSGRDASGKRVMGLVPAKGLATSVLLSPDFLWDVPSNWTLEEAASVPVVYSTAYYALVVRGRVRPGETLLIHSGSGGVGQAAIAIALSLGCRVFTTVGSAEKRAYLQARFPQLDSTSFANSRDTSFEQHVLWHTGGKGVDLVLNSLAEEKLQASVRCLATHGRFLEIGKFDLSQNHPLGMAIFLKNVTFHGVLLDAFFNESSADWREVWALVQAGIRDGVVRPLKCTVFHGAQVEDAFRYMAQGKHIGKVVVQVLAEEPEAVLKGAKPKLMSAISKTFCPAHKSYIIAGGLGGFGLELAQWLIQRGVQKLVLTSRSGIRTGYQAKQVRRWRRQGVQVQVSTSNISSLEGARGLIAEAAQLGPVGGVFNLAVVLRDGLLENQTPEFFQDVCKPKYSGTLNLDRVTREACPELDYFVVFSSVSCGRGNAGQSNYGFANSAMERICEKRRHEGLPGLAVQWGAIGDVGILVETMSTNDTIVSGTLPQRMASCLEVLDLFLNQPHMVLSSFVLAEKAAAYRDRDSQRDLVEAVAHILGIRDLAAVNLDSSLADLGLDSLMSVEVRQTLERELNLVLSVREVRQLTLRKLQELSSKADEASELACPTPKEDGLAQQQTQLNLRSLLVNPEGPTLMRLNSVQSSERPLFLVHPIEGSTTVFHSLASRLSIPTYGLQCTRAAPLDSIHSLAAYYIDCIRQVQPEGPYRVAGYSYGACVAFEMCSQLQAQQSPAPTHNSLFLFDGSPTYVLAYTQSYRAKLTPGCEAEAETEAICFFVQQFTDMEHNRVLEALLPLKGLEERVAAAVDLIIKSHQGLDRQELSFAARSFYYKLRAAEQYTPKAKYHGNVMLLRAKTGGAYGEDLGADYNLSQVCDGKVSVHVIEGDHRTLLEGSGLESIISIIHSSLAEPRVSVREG

In general, EC50 refers to the concentration at which the effect is half-maximal. Take `O=C(CSc1c[nH]c2ccccc12)NCc1ccc2c(c1)OCO2`: the EC50 in [1] and in assay [2] was > 350 µM (not active) throughout. As to `COc1cccc(CNC(=O)CSCc2cnn(-c3ccccc3)c2-n2cccc2)c1OC`, the EC50 in [3] is 3.32 µM (active). `COc1cc2c(cc1OC)C1(Nc3c-2c(C)nn3-c2ccccc2)C(=O)Nc2ccccc21` (stereo not drawn): the EC50 in assay [4] was 73.2 µM (active). A word on the IC50: it is the midpoint of a concentration-inhibition curve. `Cc1ccc(NC(=O)CCC(=O)N/N=C/c2ccc(O)cc2O)cc1`: the EC50 in assay [1] and in assay [2] was > 350 µM (not active) throughout. Moreover, the IC50 in [5] is 56.6 µM (active). Regarding `CCN1CCN(c2ccc(NC(=O)c3ccc4c(c3)nc(O)n4Cc3ccc(OC)cc3)cc2)CC1`, the EC50 in assay [4] was 32.2 µM (active); in assay [6], 34.2 µM (active).

In the case of `O=C(COC(=O)c1cc([N+](=O)[O-])ccc1Cl)NC1CCCC1`, the IC50 in assay [7] was 1.12 µM (active); in assay [8] it was 0.979 µM (active). As for `COc1ccc(-c2csc3nc(-c4cccnc4)nc(Cl)c23)cc1OC`, the EC50 in assay [4] was 10.4 µM (active); in [6], 11.5 µM (active). Take `Cn1c(=O)cc(C(=O)N/N=C/c2ccc(F)cc2)[nH]c1=O`: the EC50 in [1] and in assay [2] was > 350 µM (not active) in each case.

Turning to `CCOC(=O)c1cccc(NC(=O)CSc2nnc(C)n2Cc2ccccc2)c1`, the half-maximal inhibitory concentration (IC50) in assay [9] is 0.794 µM (active). Regarding `CCCN=C(S)N1CCCC(c2nc3ccccc3[nH]2)C1` (stereo not drawn), the EC50 in assay [1] was > 350 µM (not active); in [10], > 195 µM (not active); in assay [2], > 350 µM (not active). With `CCCOc1cccc(C2C(C(=O)c3ccco3)=C(O)C(=O)N2CCCn2ccnc2)c1` (stereo not drawn), the EC50 in assay [1] and in assay [2] was > 350 µM (not active) throughout. For orientation: AC50 means the midpoint of the concentration-response curve, whichever way the signal moves. Take `C[C@H](CO)N1C[C@H](C)[C@H](CN(C)S(=O)(=O)c2cccc(F)c2)Oc2cc(Br)ccc2S1(=O)=O`: the figures for the half-maximal activity concentration (AC50) in assay [11], in assay [12] and in assay [13] were 33.5 µM (active), 5.29 µM (active) and 3.27 µM (active), respectively.

In the case of `CC(C)c1nc(C(=O)N2CCCC(N3CCN(c4cccc(Cl)c4)CC3)C2)cs1` (stereo not drawn), the IC50 in assay [9] was 13.2 µM (active). Regarding `COc1ccc(CC(=O)N(C)Cc2ccc(C(C)(C)C)cc2)cc1S(=O)(=O)N1CCOCC1`, the IC50 in assay [7] was 2.02 µM (active); in assay [8], 2.25 µM (active). Taken in the same sequence, the figures for `O=C(O)CCN(CC(=O)c1ccc(Cl)cc1)S(=O)(=O)c1ccc([N+](=O)[O-])cc1` were 4.83 µM (active) and 5.21 µM (active). On the same counts, the results for `COc1ccc2[nH]c3c(c2c1)CCN1C(=O)C(CC(=O)NCCc2ccccn2)C[C@H](C(=O)N2CCOCC2)[C@@]31CCC1CCCC1` (stereo partly drawn) are 8.91 µM (active) and 7.16 µM (active). In the case of `N=c1c2c(ncn1Cc1ccco1)Oc1c(ccc3ccccc13)C2c1ccccc1` (stereo not drawn), the EC50 in assay [4] is 5.92 µM (active); in assay [6] it was 5.53 µM (active). Moreover, in assay [14], the AC50 was 2.25 µM (active). As to `CCN(CC)S(=O)(=O)c1ccc(NC(=O)CCC2CCCCC2)cc1`, the EC50 in assay [3] is 10.3 µM (active). With `O=C1C=C(c2ccc(Cl)c(C(F)(F)F)c2)C[C@@H](c2ccc3c(c2)OCO3)C1`, the IC50 is 5.82 µM (active) in assay [7] and 5.66 µM (active) in assay [8]. For the same compound, in assay [14], the AC50 was 5.04 µM (active). As for `COc1ccc(CCN(C)C(=O)c2ccc(COc3ccccc3)o2)cc1OC`, the IC50 in assay [9] is 13.8 µM (active); in [15], > 20 µM (inactive). Regarding `Cc1cc(NC(=O)COC(=O)C(Nc2ccc(C(F)(F)F)cc2Cl)C(C)C)no1` (stereo not drawn), the EC50 in [3] is 3.96 µM (active). Moreover, in [16], the IC50 is 9.49 µM (not active). Regarding `C[C@H](CO)N1C[C@H](C)[C@H](CN(C)Cc2ccccc2)Oc2cc(-c3ccccc3)ccc2S1(=O)=O`, the AC50 is 26.7 µM (active) in assay [11], 18.9 µM (active) in assay [12] and 21 µM (active) in [13].

Turning to `CCCCn1nc2cc(C(=O)NCCc3cccs3)ccc2c1OCC`, the IC50 in [9] is 11.8 µM (active). Consider `Cc1ccccc1N=C(S)NNc1ncc(C(F)(F)F)cc1Cl`, for which the IC50 in assay [17] is listed as 39.3 µM (not active). The EC50 in [18] is > 40 µM (inactive). Consider `Cc1nc2ccc([N+](=O)[O-])cc2c(=O)n1Cc1ccc(F)cc1`, for which the values for the IC50 in assay [7] and in assay [8] were 4.49 µM (active) and 3.27 µM (active), respectively. `Cc1nc(-c2ccccc2)sc1-c1nc(-c2cccnc2)ncc1S(=O)(=O)c1ccccc1`: the EC50 in assay [3] was 8.73 µM (active). As for `COc1ccc(N2CCN(S(=O)(=O)c3cc(-c4cc(C)no4)ccc3C(C)C)CC2)cc1`, the EC50 in assay [1] and in [2] was > 350 µM (not active) throughout.
